From patent US9695155B2, “Herbicidal substituted pyrimidinyloxy benzene compounds” (E. I. DU PONT DE NEMOURS AND COMPANY, priority 2013, dated 2017)

What was measured:
barnyardgrass [1] = assay: Test A preemergence; type: in vivo, Echinochloa crus-galli; conditions: for Plant response rating, Barnyardgrass: 125 g ai/ha, 0 to 100 scale where 0 is no effect and 100 is complete control; for Barnyardgrass plant response rating: 500 g ai/ha, 0 to 100 scale, 0 no effect, 100 complete control, approx. 10 days
In short: (§1)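 Injury scores run from 0, no effect, to 100, complete control, judged by eye against untreated plants roughly 10 days after treatment. Chemicals carried a surfactant in a non-phytotoxic solvent and went onto loam–sand soil preemergence or onto one- to two-leaf seedlings postemergence.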

morningglory [2] = assay: Test A preemergence; type: in vivo, Ipomoea spp.; conditions: for Plant response rating, Morningglory: 125 g ai/ha, 0 to 100 scale where 0 is no effect and 100 is complete control; for Morningglory plant response rating: 500 g ai/ha, 0 to 100 scale, 0 no effect, 100 complete control, approx. 10 days
In short: as §1

pigweed [3] = assay: Test A preemergence; type: in vivo, Amaranthus retroflexus; conditions: for Plant response rating, Pigweed: 125 g ai/ha, 0 to 100 scale where 0 is no effect and 100 is complete control; for Pigweed plant response rating: 500 g ai/ha, 0 to 100 scale, 0 no effect, 100 complete control, approx. 10 days
In short: as §1

velvetleaf [4] = assay: Test A preemergence; type: in vivo, Abutilon theophrasti; conditions: 125 g ai/ha, 0 to 100 scale where 0 is no effect and 100 is complete control
In short: as §1

morningglory [5] = assay: Test A postemergence; type: in vivo, Ipomoea spp.; conditions: 0 to 100 scale where 0 is no effect and 100 is complete control
In short: as §1

wheat = assay: Test A postemergence; type: in vivo, Triticum aestivum; conditions: 0 to 100 scale where 0 is no effect and 100 is complete control
In short: as §1

Heteranthera limosa = assay: Test B flooded paddy test; type: in vivo; conditions: Flood, 250 g ai/ha; 0 to 100 scale where 0 is no effect and 100 is complete control
In short: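 Compound added straight to paddy water, with pots kept flooded 3 cm above soil, on plants grown to the 2-leaf stage. Visual scoring 0-100 (100 = complete control) against untreated controls after 13 to 15 greenhouse days.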

blackgrass = assay: Test C postemergence; type: in vivo, Alopecurus myosuroides; conditions: for Blackgrass plant response rating: 16 g ai/ha, visual rating; for Blackgrass plant response rating / Plant response rating (0 to 100), Blackgrass: postemergence; for Blackgrass plant response rating / Plant response rating, Blackgrass: scale 0 to 100 (0 no effect, 100 complete control); for Plant response rating (0 to 100), Blackgrass: 125 g ai/ha; for Plant response rating, Blackgrass: Postemergence
In short: (§2)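 Visual ratings on a 0–100 scale (100 = complete control) were made versus untreated controls after 13–15 greenhouse days. Chemicals in a surfactant-containing non-phytotoxic solvent were applied either preemergence to seeds in loam–sand soil or postemergence to 1- to 4-leaf plants 2–18 cm tall.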

morningglory [6] = assay: Test C postemergence; type: in vivo, Ipomoea coccinea; conditions: for Plant response rating (0 to 100), Morningglory: 125 g ai/ha, postemergence; for Plant response rating, Morningglory: Postemergence, scale 0 to 100 (0 no effect, 100 complete control)
In short: as §2

pigweed [7] = assay: Test C postemergence; type: in vivo, Amaranthus retroflexus; conditions: for Plant response rating (0 to 100), Pigweed: 125 g ai/ha, postemergence; for Plant response rating, Pigweed: Postemergence, scale 0 to 100 (0 no effect, 100 complete control)
In short: as §2

ragweed = assay: Test C postemergence; type: in vivo, Ambrosia elatior; conditions: for Plant response rating (0 to 100), Ragweed: 125 g ai/ha, postemergence; for Plant response rating, Ragweed: Postemergence, scale 0 to 100 (0 no effect, 100 complete control)
In short: as §2

barnyardgrass [8] = assay: Test C postemergence; type: in vivo, Echinochloa crus-galli; conditions: for Barnyardgrass plant response rating: 16 g ai/ha, visual rating; for Barnyardgrass plant response rating / Plant response rating (0 to 100), Barnyardgrass: postemergence; for Barnyardgrass plant response rating / Plant response rating, Barnyardgrass: scale 0 to 100 (0 no effect, 100 complete control); for Plant response rating (0 to 100), Barnyardgrass: 125 g ai/ha; for Plant response rating, Barnyardgrass: Postemergence
In short: as §2

kochia = assay: Test C postemergence; type: in vivo, Kochia scoparia; conditions: for Kochia plant response rating: 16 g ai/ha, visual rating; for Kochia plant response rating / Plant response rating (0 to 100), Kochia: postemergence; for Kochia plant response rating / Plant response rating, Kochia: scale 0 to 100 (0 no effect, 100 complete control); for Plant response rating (0 to 100), Kochia: 125 g ai/ha; for Plant response rating, Kochia: Postemergence
In short: as §2

wild oat = assay: Test C postemergence; type: in vivo, Avena fatua; conditions: for Plant response rating (0 to 100), Oat, Wild: 125 g ai/ha, postemergence; for Plant response rating, Oat, Wild: Postemergence, scale 0 to 100 (0 no effect, 100 complete control)
In short: as §2

velvetleaf [9] = assay: Test C postemergence; type: in vivo, Abutilon theophrasti; conditions: for Plant response rating (0 to 100), Velvetleaf: 125 g ai/ha, postemergence; for Plant response rating, Velvetleaf: Postemergence, scale 0 to 100 (0 no effect, 100 complete control)
In short: as §2

Compound | Plant response rating, Barnyardgrass (barnyardgrass [1]) | Barnyardgrass plant response rating (barnyardgrass [1]) | Plant response rating, Morningglory (morningglory [2]) | Morningglory plant response rating (morningglory [2]) | Plant response rating, Pigweed (pigweed [3]) | Pigweed plant response rating (pigweed [3]) | Plant response rating, Velvetleaf (velvetleaf [4]) | Plant response rating, Morningglory (morningglory [5]; 125 g ai/ha) | Plant response rating, Morningglory (morningglory [5]; 500 g ai/ha) | Plant response rating, Wheat (wheat; 125 g ai/ha) | Plant response rating, Wheat (wheat; 500 g ai/ha) | Plant response rating, Ducksalad (Heteranthera limosa) | Blackgrass plant response rating (blackgrass; 13 to 15 days) | Plant response rating (0 to 100), Blackgrass (blackgrass) | Plant response rating, Blackgrass (blackgrass; 31 g ai/ha, 13 to 15 days) | Plant response rating, Blackgrass (blackgrass; 62 g ai/ha) | Plant response rating (0 to 100), Morningglory (morningglory [6]) | Plant response rating, Morningglory (morningglory [6]; 31 g ai/ha, 13 to 15 days) | Plant response rating, Morningglory (morningglory [6]; 62 g ai/ha) | Plant response rating (0 to 100), Pigweed (pigweed [7]) | other results
Fc1cnc(Oc2cccc(C(F)F)c2-n2cc(Cl)cn2)nc1 [Compound 94] | 80 | 100 | 40 | 90 | 100 | 100 | 90 | 80 | 100 | 0 | 50 | 40 | 0 | 5 | 5 | 5 | 55 | 75 | 75 | 85 | Plant response rating, Pigweed (pigweed [7]; 31 g ai/ha, 13 to 15 days): 80; Plant response rating, Pigweed (pigweed [7]; 62 g ai/ha): 80; Plant response rating (0 to 100), Ragweed (ragweed): 45; Plant response rating, Ragweed (ragweed; 31 g ai/ha, 13 to 15 days): 15; Plant response rating, Ragweed (ragweed; 62 g ai/ha): 55; Barnyardgrass plant response rating (barnyardgrass [8]; 13 to 15 days): 10; Plant response rating (0 to 100), Barnyardgrass (barnyardgrass [8]): 10; Plant response rating, Barnyardgrass (barnyardgrass [8]; 31 g ai/ha, 13 to 15 days): 10; Plant response rating, Barnyardgrass (barnyardgrass [8]; 62 g ai/ha): 10; Kochia plant response rating (kochia; 13 to 15 days): 30; Plant response rating (0 to 100), Kochia (kochia): 90; Plant response rating, Kochia (kochia; 31 g ai/ha, 13 to 15 days): 80; Plant response rating, Kochia (kochia; 62 g ai/ha): 90; Plant response rating (0 to 100), Oat, Wild (wild oat): 5; Plant response rating, Oat, Wild (wild oat; 31 g ai/ha, 13 to 15 days): 0; Plant response rating, Oat, Wild (wild oat; 62 g ai/ha): 0; Plant response rating (0 to 100), Velvetleaf (velvetleaf [9]): 40; Plant response rating, Velvetleaf (velvetleaf [9]; 31 g ai/ha, 13 to 15 days): 20; Plant response rating, Velvetleaf (velvetleaf [9]; 62 g ai/ha): 65
N#Cc1cccc(Oc2ncc(Cl)cn2)c1-n1cc(OC(F)F)cn1 [Compound 97] | 80 | 100 | 100 | 100 | 100 | 100 | 100 | 90 | 100 | 50 | 70 | 95 | 10 | 40 | 5 | 10 | 95 | 85 | 85 | 95 | Plant response rating, Pigweed (pigweed [7]; 31 g ai/ha, 13 to 15 days): 85; Plant response rating, Pigweed (pigweed [7]; 62 g ai/ha): 85; Plant response rating (0 to 100), Ragweed (ragweed): 70; Plant response rating, Ragweed (ragweed; 31 g ai/ha, 13 to 15 days): 40; Plant response rating, Ragweed (ragweed; 62 g ai/ha): 60; Barnyardgrass plant response rating (barnyardgrass [8]; 13 to 15 days): 10; Plant response rating (0 to 100), Barnyardgrass (barnyardgrass [8]): 15; Plant response rating, Barnyardgrass (barnyardgrass [8]; 31 g ai/ha, 13 to 15 days): 10; Plant response rating, Barnyardgrass (barnyardgrass [8]; 62 g ai/ha): 10; Kochia plant response rating (kochia; 13 to 15 days): 80; Plant response rating (0 to 100), Kochia (kochia): 100; Plant response rating, Kochia (kochia; 31 g ai/ha, 13 to 15 days): 90; Plant response rating, Kochia (kochia; 62 g ai/ha): 95; Plant response rating (0 to 100), Oat, Wild (wild oat): 25; Plant response rating, Oat, Wild (wild oat; 31 g ai/ha, 13 to 15 days): 10; Plant response rating, Oat, Wild (wild oat; 62 g ai/ha): 15; Plant response rating (0 to 100), Velvetleaf (velvetleaf [9]): 70; Plant response rating, Velvetleaf (velvetleaf [9]; 31 g ai/ha, 13 to 15 days): 40; Plant response rating, Velvetleaf (velvetleaf [9]; 62 g ai/ha): 75
